Values of other authors, collected in patent US7423028B2, “Injectable pharmaceutical compositions comprising sodium diclofenac and β-cyclodextrin” (Ibsa Institut Biochemique S.A., priority 2004, dated 2008).

O=C([O-])Cc1ccccc1Nc1c(Cl)cccc1Cl.[Na+] [sodium diclofenac, 2-[(2,6-dichlorophenyl)amino]benzeneacetic acid monosodium salt]
solubility in water: sparingly soluble in water
